Laboratory results taken from publication PMC5623904, “Structural investigation of nucleophosmin interaction with the tumor suppressor Fbw7γ” (Oncogenesis, 2017).
Peptide text beside a SMILES is read from it. * marks the point of attachment. Dansyl = CN(C)c1cccc2c(S(=O)(=O)*)cccc12

Experiments:
Assay type in all cases: binding
[1] = molecular target: T1, Nter-NPM1 (residues 16-123) (Homo sapiens, UniProt P06748); test: Equilibrium fluorescence titration of dansylated peptide with Nter-NPM1; settings: SD; read-out: Nter-NPM1 KD
T1 construct: inferred from pET28a NdeI/BamHI cloning and HisTrap purification) (N); made in house; host or cells: Escherichia coli BL21(DE3)
Method: (§1) All experiments were performed at 25 °C in sodium phosphate buffer 20 mM pH 7.2, or in sodium phosphate buffer 20 mM plus 100 mM NaCl pH 7.2 (which sets ionic strength to 150 mM), using a FluoroMax-4 spectrofluorometer (Jobin Yvon, Edison, NJ, USA), equipped with a water bath apparatus. Fbw7γ and CENP-W peptides, functionalized with a dansyl (5-dimetilamminonaftalen-1-sulphonyl) group at their N terminus, were purchased from JPT (Germany). Tat peptide was synthesized employing the solid phase method following standard Fmoc strategies and labeled with dansyl fluorophore at its N terminus. Crude product was purified by RP-HPLC applying a linear gradient of 0.1% TFA CH3CN in 0.1% TFA water from 5% to 65% over 12 min using a semi-preparative 2.2 × 5 cm C18 column at a flow rate of 20 ml/min. Purity and identity were confirmed by LC–MS analysis.
(§2) Titration experiments were conducted with an excitation wavelength of 330 nm while the fluorescence emission spectra were collected in the range between 350 and 650 nm. Titrations were performed at constant peptide concentration (5 μM) and varying protein concentrations (from 0 to 200/400 μM). Titrations were performed in triplicate and data, analyzed with the Graphpad Prism software (https://www.graphpad.com/scientific-software/prism/), were reported as dissociation constant±s.d.
(§3) Equilibrium binding curves were fitted to the standard quadratic equation: […]
(§4) where F is the observed fluorescence signal, n and [A]0 are the total concentration of non-varied and varied species, respectively, and KD is the equilibrium dissociation constant. B and C are constants taking into account the total fluorescence change and fluorescence at [A]0=0, respectively, and k is a term describing the slope of the curve at high protein concentration. Whenever possible, under pseudo first-order conditions, the equation 1 was simplified to: […]

[2] = molecular target: T2, Nter-NPM1 D36A-E39A-E93A (Homo sapiens, UniProt P06748, D36A/E39A/E93A); test: Equilibrium fluorescence titration, Nter-NPM1 triple mutant; settings: dansylated peptide 5 μM; sodium phosphate 20 mM pH 7.2, 25 °C; triplicate, ±s.d.; read-out: KD, D36A-E39A-E93A
T2 construct: inferred from pET28a NdeI/BamHI cloning and HisTrap purification) (N); made in house; host or cells: Escherichia coli BL21(DE3)
Method: (§5) Nter-NPM1 mutants were obtained by site-directed mutagenesis using the Quickchange II Lightning Site-Directed Mutagenesis kit (Stratagene, La Jolla, CA, USA), following manufacturer’s instructions. Oligonucleotides used for PCR were obtained from Primm Biotech (Milan, Italy). Forward oligonucleotides used are reported in Supplementary Table 2.
as §1, §2, §3, §4

[3] = molecular target: T3, Nter-NPM1 D36A-E37A-E39A-E93A (Homo sapiens, UniProt P06748, D36A/E37A/E39A/E93A); test: Equilibrium fluorescence titration, Nter-NPM1 quadruple mutant (E37A); settings: dansylated peptide 5 μM; sodium phosphate 20 mM pH 7.2, 25 °C; triplicate, ±s.d.; read-out: KD, D36A-E37A-E39A-E93A
T3 construct: inferred from pET28a NdeI/BamHI cloning and HisTrap purification) (N); made in house; host or cells: Escherichia coli BL21(DE3)
Method: as §5, §1, §2, §3, §4

[4] = molecular target: T4, Nter-NPM1 D36A-E39A-E93A-E121A (Homo sapiens, UniProt P06748, D36A/E121A/E39A/E93A); test: Equilibrium fluorescence titration, Nter-NPM1 quadruple mutant (E121A); settings: dansylated peptide 5 μM; sodium phosphate 20 mM pH 7.2, 25 °C; triplicate, ±s.d.
T4 construct: inferred from pET28a NdeI/BamHI cloning and HisTrap purification) (N); made in house; host or cells: Escherichia coli BL21(DE3)
Method: as §5, §1
as §2, with “constant±s.d. […]” for “constant±s.d.”
as §4, with “concentration.” for “concentration. Whenever possible, under pseudo first-order conditions, the equation 1 was simplified to:”

[5] = molecular target: T5, Nter-NPM1 D36A-E37A-E39A-E93A-E121A (Homo sapiens, UniProt P06748, D36A/E121A/E37A/E39A/E93A); test: Equilibrium fluorescence titration, Nter-NPM1 quintuple mutant; settings: dansylated peptide 5 μM; sodium phosphate 20 mM pH 7.2, 25 °C; triplicate, ±s.d.
T5 construct: inferred from pET28a NdeI/BamHI cloning and HisTrap purification) (N); made in house; host or cells: Escherichia coli BL21(DE3)
Method: as §5, §1, §2, §3, §4

T1 sequence (P06748 16-123): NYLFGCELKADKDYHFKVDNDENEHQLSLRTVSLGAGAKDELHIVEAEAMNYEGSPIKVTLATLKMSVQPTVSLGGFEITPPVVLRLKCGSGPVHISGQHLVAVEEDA
T5 sequence (P06748 16-123 D36A/E37A/E39A/E93A/E121A): as the sequence (P06748 16-123) above, with D21A, E22A, E24A, E78A, E106A counted along it
T3 sequence (P06748 16-123 D36A/E37A/E39A/E93A): as the sequence (P06748 16-123) above, with D21A, E22A, E24A, E78A counted along it
T4 sequence (P06748 16-123 D36A/E39A/E93A/E121A): as the sequence (P06748 16-123) above, with D21A, E24A, E78A, E106A counted along it
T2 sequence (P06748 16-123 D36A/E39A/E93A): as the sequence (P06748 16-123) above, with D21A, E24A, E78A counted along it

C[C@H](NS(=O)(=O)c1cccc2c(N(C)C)cccc12)C(=O)NCC(=O)N[C@@H](CCCNC(=N)N)C(=O)N[C@@H](CCCCN)C(=O)N[C@@H](CCCCN)C(=O)N[C@@H](CCCNC(=N)N)C(=O)N[C@@H](CCCNC(=N)N)C(=O)N[C@@H](CCC(N)=O)C(=O)N[C@@H](CCCNC(=N)N)C(=O)N[C@@H](CCCNC(=N)N)C(=O)N[C@@H](CCCNC(=N)N)C(=O)N1CCC[C@H]1C(=O)N1CCC[C@H]1C(=O)N[C@@H](CCC(N)=O)C(=O)O [Tat*]
Kd [1]: 2.4 ± 0.5 µM
Kd [2]: 11.1 ± 2.1 µM
Kd [3]: 57.4 ± 7 µM
Kd [4]: 63.8 ± 5 µM
Kd [5]: 643 ± 70.8 µM

CC(C)C[C@H](NC(=O)[C@H](Cc1ccccc1)NC(=O)CNC(=O)[C@H](CCCNC(=N)N)NC(=O)[C@@H]1CCCN1C(=O)[C@H](C)NC(=O)[C@H](CCCCN)NC(=O)[C@H](CCCNC(=N)N)NC(=O)[C@H](CCCCN)NS(=O)(=O)c1cccc2c(N(C)C)cccc12)C(=O)N[C@@H](CCCCN)C(=O)N[C@@H](CCCNC(=N)N)C(=O)N[C@H](C(=O)N[C@@H](Cc1ccccc1)C(=O)N[C@@H](CCCCN)C(=O)N[C@@H](CCCNC(=N)N)C(=O)N[C@@H](CCCCN)C(=O)N[C@@H](CCCCN)C(=O)O)C(C)C [CENP-W*] (Dansyl-KRKAPRGFLKRVFKRKK-OH)
Kd [1]: 6.2 ± 0.9 µM
Kd [2]: 18.4 ± 2.6 µM
Kd [3]: 71.4 ± 9.1 µM
Kd [4]: 82.8 ± 5.6 µM
Kd [5]: 734 ± 158 µM
